≈ marks a conversion by molar mass, not a printed value. Like-named read-outs stand apart in the source and are kept apart here. Values belong to the molecule of their own block, whether it stands above or below them.
Assays:
[1] = test system: Klebsiella pneumoniae ATCC 13883; experiment: Broth microdilution MIC/MBC, antibacterial; format: cell-based; details: ATCC13883, Klebsiella pneumoniae ATCC 13883
Description: (§1) The minimal inhibitory concentration (MIC) was determined with the microdilution technique using 96-well polystyrene microplates (Medlab, Poland), as indicated by the European Committee on Antimicrobial Susceptibility Testing (EUCAST) guidelines. In this process, stock solutions of each tested Schiff base dissolved in dimethylsulphoxide (DMSO, Stanlab, Poland) were used at a concentration of 50 mg/mL. Before in vitro antibacterial activity detection, the basic concentration of 1000 µg/mL of each compound was prepared with Mueller–Hinton broth medium (MHB, BioMaxima, Lublin, Poland). The experiment was prepared using Mueller–Hinton broth medium in 96-well microplates. A series of two-fold dilutions of the tested compounds in the concentration range from 0.49 to 1000 μg/mL was made in culture broth medium. Then, 2 μL of bacterial inoculum with a density of 0.5 McFarland standard was added to each well. Each well was filled with a total volume of 100 μL. Then, the microtiter plates were incubated for 18 ± 2 h at 35 °C. After the incubation, the results were spectrophotometrically determined in Biotek ELx800 (Biokom, Janki, Poland) at 600 nm (OD600). The lowest concentration of the tested compounds with the absence of bacterial growth was determined as an MIC. Three replicates for each strain and compound were performed.
(§2) After incubation, 5 μL of the broth media cultured with bacteria or fungi were removed from each well of the plates used in the MIC experiments. Next, they were culturd onto the surface of the MHA medium (BioMaxima, Lublin, Poland) plate for bacteria or MHA +2% glucose plate for yeasts. The inoculated plates were incubated in the conditions mentioned above. After incubation, a visual reading of MBC or MFC values was made. […] Three replicates for each strain and compound were performed.

[2] = test system: Bacillus subtilis ATCC 6633; experiment: Broth microdilution MIC/MBC, antibacterial; format: cell-based; details: ATCC6633
Description: as §1, §2

[3] = test system: Pseudomonas aeruginosa ATCC 27853; experiment: Broth microdilution MIC/MBC, antibacterial; format: cell-based; details: ATCC27853
Description: as §1, §2

[4] = test system: Staphylococcus aureus ATCC 6538; experiment: Broth microdilution MIC/MBC, antibacterial; format: cell-based; details: ATCC6538
Description: as §1, §2

[5] = test system: Micrococcus luteus ATCC 10240; experiment: Broth microdilution MIC/MBC, antibacterial; format: cell-based; details: ATCC10240
Description: as §1, §2

[6] = test system: Staphylococcus epidermidis ATCC 12228; experiment: Broth microdilution MIC/MBC, antibacterial; format: cell-based; details: ATCC12228
Description: as §1, §2

[7] = test system: Escherichia coli ATCC 25922; experiment: Broth microdilution MIC/MBC, antibacterial; format: cell-based; details: ATCC25922, Escherichia coli ATCC 25922
Description: as §1, §2

MTT cell viability assay = format: cell-based; details: human, HaCaT cells (immortal keratinocytes), HaCaT normal cell line, read-out: Cytotoxic activity IC50 (converted)
Description: (§3) All the cell lines were purchased from the American Type Culture Collection (ATCC, Rockville, MD, USA) and cultured in strictly defined conditions according to the recommended ATCC protocol. The PC3 cells were cultured in RPMI 1640 (Roswell Park Memorial Institute, Biowest SAS, Nuaillé, France), while the MDA-MB-231 and HaCaT cells were maintained in DMEM (Dulbecco’s Modified Eagle’s Medium, Biowest SAS, Nuaillé, France) supplemented with 1% streptomycin and penicillin and in 10% heat-inactivated fetal bovine serum (FBS, Gibco BRL San Francisco, CA, USA) with 1% streptomycin and penicillin. The cells were incubated in a 37 °C/5% CO2 humidified incubator. They were cultured until 80–90% confluence was achieved. Then, they were harvested by treatment with 0.25% trypsin-0.02% EDTA (Gibco BRL, San Francisco, CA, USA) and used in the experiments. Untreated cells were used as a control. […] After 24 h of incubation, the culture medium was replaced with a fresh medium. […] Then, the medium was aspirated and formed formazan crystals were solubilized by adding isopropanol-DMSO mixture (1:1 vol). The intensity of the dissolved crystals was measured using a UVM 340 reader (ASYS Hitech GmbH, Eugendorf, Austria) at a wavelength of 570 nm. Cell viability was estimated by the percentage of MTT reduction in cells to which the tested compounds were added, compared to the control sample, where only the medium was added. The experiments were repeated three times. The IC50 was calculated using GraphPad Prism 9.0.0 (GraphPad Software).

MDA-MB-231 = experiment: MTT cell viability assay; format: cell-based, human; details: Homo sapiens, MDA-MB-231, MTT, read-out: Cytotoxic activity IC50
Description: as §3

PC3 = experiment: MTT cell viability assay; format: cell-based, human; details: Homo sapiens, PC-3, PC3, MTT, read-out: Cytotoxic activity IC50
Description: as §3

[8] = test system: Candida lusitaniae ATCC 3449; experiment: Broth microdilution MIC/MFC, antifungal; format: cell-based; details: Clavispora lusitaniae, ATCC3449
Description: (§4) To determine the antifungal activity of the newly synthesized Schiff bases against the reference strains of Candida spp., the broth microdilution method was used according to the EUCAST [52] and Clinical and Laboratory Standards Institute (CLSI) guidelines with some modifications to the medium. Before in vitro antifungal activity detection, the basic concentration of 1000 µg/mL of each compound was prepared with Mueller–Hinton broth (BioMaxima, Lublin, Poland) supplemented with 2% glucose (MHB+2% glucose). […] The final concentrations of the Schiff bases ranged from […] to 1000 µg/mL. All the reference strains of Candida spp. used were first subcultured to the Mueller–Hinton agar medium (BioMaxima, Lublin, Poland) with 2% glucose (MHA +2% glucose) at 37 °C for 24 h. Next, 2 µL of appropriate fungal suspensions was added to each well containing 100 µL of MHB + 2% glucose and the various concentrations of the tested Schiff bases.
as §2

Candida auris CDC B11903 = experiment: Broth microdilution MIC/MFC, antifungal; format: cell-based; details: Candidozyma auris, CDCB11903
Description: as §4, §2

[9] = test system: Candida glabrata ATCC 15126; experiment: Broth microdilution MIC/MFC, antifungal; format: cell-based; details: Nakaseomyces glabratus, ATCC15126
Description: as §4, §2

[10] = test system: Candida glabrata ATCC 90030; experiment: Broth microdilution MIC/MFC, antifungal; format: cell-based; details: Nakaseomyces glabratus, ATCC90030
Description: as §4, §2

[11] = test system: Candida tropicalis ATCC 1369; experiment: Broth microdilution MIC/MFC, antifungal; format: cell-based; details: ATCC1369
Description: as §4, §2

[12] = test system: Candida albicans ATCC 10231; experiment: Broth microdilution MIC/MFC, antifungal; format: cell-based
Description: as §4, §2

[13] = test system: Candida krusei ATCC 14243; experiment: Broth microdilution MIC/MFC, antifungal; format: cell-based; details: Pichia kudriavzevii, ATCC14243
Description: as §4, §2

[14] = test system: reference strains of bacteria; experiment: Positive control antibiotics, broth microdilution MIC; format: cell-based; details: range over the bacteria
Description: The reference antibiotics used during our studies for the selected species of reference bacteria were ciprofloxacin and cefuroxime (Merck KGaA, Darmstadt, Germany). Nystatin (Merck KGaA, Darmstadt, Germany), a known antifungal antibiotic, was used as a positive control for Candida spp.
All reference antimicrobials against bacteria or fungi were tested in a final concentration range from 0.0049 to 10 µg/mL. The tested Schiff bases were two-fold diluted in the concentration range from 0.49 to 1000 μg/mL in culture broth medium for bacteria or fungi. The medium with DMSO at the final concentrations and without the tested Schiff bases served as a control—no microbial growth inhibition was observed. […]
The minimal inhibitory concentration (MIC) was determined with the microdilution technique using 96-well polystyrene microplates (Medlab, Poland), as indicated by the European Committee on Antimicrobial Susceptibility Testing (EUCAST) guidelines. […] After the incubation, the results were spectrophotometrically determined in Biotek ELx800 (Biokom, Janki, Poland) at 600 nm (OD600). The lowest concentration of the tested compounds with the absence of bacterial growth was determined as an MIC. […]

MIC [1]: > 1000 µg/mL
MIC [2]: > 1000 µg/mL
MIC [3]: > 1000 µg/mL
MIC [4]: > 1000 µg/mL
MIC [5]: > 1000 µg/mL
MIC [6]: > 1000 µg/mL
MIC [7]: > 1000 µg/mL
melting point: 140 to 143 °C
MIC [8]: 500 µg/mL (≈ 1.52 mM)
MIC (Candida auris CDC B11903): 500 µg/mL (≈ 1.52 mM)
MIC [9]: > 1000 µg/mL
MIC [10]: 500 µg/mL (≈ 1.52 mM)
MIC [11]: 500 µg/mL (≈ 1.52 mM)
MIC ([12]; ATCC10231): 125 µg/mL (≈ 0.381 mM)
MIC [13]: 1000 µg/mL (≈ 3.05 mM)
Structure (SMILES): COc1ccccc1C=Nn1c(-c2cccc(F)c2)n[nH]c1=S [RO12, 5-(3-fluorophenyl)-4-[(2-methoxybenzylidene)amino]-2,4-dihydro-3H-1,2,4-triazole-3-thione]
IC50 at 72 h (MTT cell viability assay; 72 h (table footnote)): 98.1 µM
IC50 at 72 h (MTT cell viability assay; same value in µg/mL): 38.1 µg/mL
IC50 (MDA-MB-231; 72 h (table footnote)): > 100 µM
IC50 (MDA-MB-231; same value in µg/mL): > 38.8 µg/mL
IC50 (PC3; 72 h (table footnote)): > 100 µM
IC50 (PC3; same value in µg/mL): > 38.8 µg/mL
MFC [8]: > 1000 µg/mL
MFC (Candida auris CDC B11903): > 1000 µg/mL
MFC [10]: > 1000 µg/mL
MFC [11]: > 1000 µg/mL
MFC ([12]; ATCC10231, read-out: MFC): > 1000 µg/mL

Structure (SMILES): CO/N=C(\C(=O)N[C@@H]1C(=O)N2C(C(=O)O)=C(COC(N)=O)CS[C@H]12)c1ccco1 [cefuroxime]
MIC [14]: 0.24 to 62.5 µg/mL (≈ 0.000566 to 0.147 mM)

Structure (SMILES): O=C(O)c1cn(C2CC2)c2cc(N3CCNCC3)c(F)cc2c1=O [ciprofloxacin]
MIC [14]: 0.24 to 0.98 µg/mL (≈ 0.000724 to 0.00296 mM)
